# Assay results published in patent US20110280940A1, “Di-Vanilloyl And Tri-Vanilloyl Derivatives For Use In Anti-Cancer Therapy” (priority 2008, published 2011).
# Read-outs that look alike come from different tables or passages of the source.
# Key:
# [1] = system: VM21 melanoma cells; assay: MTT colorimetric assay, overall cell growth, VM21; format: cell-based, human; conditions: Homo sapiens, read-out: In Vitro IC50 Growth Inhibitory Values, VM21
# Method in brief: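 Growth is measured as remaining living cells relative to untreated controls after 72 h at 37 °C with compound at 10^-8 to 10^-4 M. Readout is MTT formazan absorbance at 570 nm.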
# [2] = target: T1, Aurora A kinase (Homo sapiens, UniProt O14965); assay: Radiometric protein kinase assay (33 PanQinase), Aurora A; format: biochemical; conditions: for IC50: dose-response 0-100 μM, n=3, read-out: IC50: Concentration of drug needed in order to inhibit kinase activity by 50%, AurA; for inhibition at 57 µM: read-out: inhibition of Aurora A activity
# T1 construct: made in house
# T1 sequence (O14965 1-403): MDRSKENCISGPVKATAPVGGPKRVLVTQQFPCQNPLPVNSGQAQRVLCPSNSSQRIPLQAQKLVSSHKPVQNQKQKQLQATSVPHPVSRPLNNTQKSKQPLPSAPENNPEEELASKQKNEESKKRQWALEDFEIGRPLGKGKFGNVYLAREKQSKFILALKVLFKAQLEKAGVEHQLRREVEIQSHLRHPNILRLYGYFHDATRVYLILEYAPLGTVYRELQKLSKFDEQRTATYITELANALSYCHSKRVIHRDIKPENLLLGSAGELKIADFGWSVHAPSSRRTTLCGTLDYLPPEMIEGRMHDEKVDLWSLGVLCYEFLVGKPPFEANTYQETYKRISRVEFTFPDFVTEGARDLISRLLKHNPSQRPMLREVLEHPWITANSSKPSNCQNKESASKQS
# Method: Note that at a concentration of 20 μM of the DLT compounds, the activity of the three Aurora kinases is reduced by approximately 40-50%, whereas at concentrations of 50 μM, i.e. the concentration used in the anti-proliferation assays of example 2B, the activity of said kinases is reduced by 60-75%.
# The kinase inhibition profile of DLT95-Cl at 20 μM was determined using 255 protein kinases. Residual activity values were measured by testing each compound at one concentration in duplicate in each kinase assay. A radiometric protein kinase assay (33 PanQinase®Activity Assay) was used for measuring the kinase activity of 250 protein kinases. All kinase assays were performed in 96-well flashPlates™ from Perkin Elmer (Boston, Mass., USA) in a 50 μl reaction volume. The reaction cocktail was pipetted in 4 steps in the following order: • 10 μl of non-radioactive ATP solution (in H2O) • 25 μl of assay buffer/[γ-33P]-ATP mixture • 5 μl of test sample in 10% DMSO • 10 μl of enzyme/substrate mixture
# The assay for all enzymes contained 60 mM HEPES-NaOH, pH 7.5, 3 mM MgCl2, 3 mM MnCl2, 3 μM Na-orthovanadate, 1.2 mM DTT, 50 μg/ml PEG20000, 1 μM ATP/[γ-33P]-ATP (approx. […] per well), protein kinase, and substrate. All PKC assays (except the PKC-mu and the PKC-nu assay) additionally contained 1 mM CaCl2, 4 mM EDTA, 5 μg/ml Phosphatidylserine and 1 μg/ml 1,2-Dioleyl-glycerol. The MYLK2, CAMK1D, CAMK2A, CAMK2B, CAMK2D, CAMK4, CAMKK2, DAPK2 and EEF2K assays additionally contained 1 μg/ml Calmodulin and 0.5 mM CaCl2. The PRKG1 and PRKG2 assays additionally contained 1 μM cGMP.
# The protein kinases were expressed either in Sf9 insect cells or in E. coli as recombinant GST-fusion proteins or as His-tagged proteins. All kinases were produced from human cDNAs. Kinases were purified by affinity chromatography using either GSH-agarose (Sigma) or Ni-NTH-agarose (Qiagen). The purity of the protein kinases was examined by SDS-PAGE/coomassie staining. The identity of the protein kinases was checked by mass spectroscopy.
# The reaction cocktails were incubated at 30° C. for 60 minutes. The reaction was stopped with 50 μl of 2% (v/v) H3PO4, plates were aspirated and washed two times with 200 μl 0.9% (w/v) NaCl. All assays were performed with a BeckmanCoulter Biomek 2000/SL robotic system.
# Incorporation of ^33Pi (counting of “cpm”) was determined with a microplate scintillation counter (Microbeta, Wallac).
# For each kinase, the median value of the cpm of three wells with complete reaction cocktails, but without kinase, was defined as “low control” […]. This value reflects unspecific binding of radioactivity to the plate in the absence of protein kinase but in the presence of the substrate. Additionally, for each kinase the median value of the cpm of three other wells with the complete reaction cocktail, but without any compound, was taken as the “high control”, i.e. full activity in the absence of any inhibitor […]. The difference between high and low control of was taken as 100% activity for each kinase. As part of the data evaluation the low control value of each kinase was subtracted from the high control value as well as from their corresponding “compound values”. The residual activity (in %) for each compound well was calculated by using the following formula: Res. Activity (%)=100×[(cpm of compound−low control)/(high control−low control)]
Structure (SMILES),"IC50 ([1]; MTT, 72 hours of incubation) [µM]",IC50 ([1]; 72 h) [µM],IC50 [2] [µM],inhibition at 57 µM [2] [%]
"COc1cc(C(=O)OCCOC(=O)c2ccc(O)c(OC)c2)ccc1O [DLT1, Ethane-1,2-diyl bis-(4-hydroxy-3-methoxybenzoate)]",55,–,–,–
"O=C(OCc1cc(COC(=O)c2ccc(O)c(Cl)c2)cc(COC(=O)c2ccc(O)c(Cl)c2)c1)c1ccc(O)c(Cl)c1 [DLT95-Cl, [3,5-bis[(4-hydroxy-3-chloro-benzoyl)oxymethyl]phenyl]methyl 4-hydroxy-3-chloro-benzoate]",–,35,1.7,≥ 50
"COc1cc(C(=O)O)ccc1O [vanillic acid, reference compound]",> 1000,–,> 100,–
"COc1cc(C(=O)OCCCCCCOC(=O)c2ccc(O)c(OC)c2)ccc1O [DLT11, Hexane-1,6-diyl bis-(4-hydroxy-3-methoxybenzoate)]",71,–,–,–
"COc1cc(C(=O)OCc2cc(COC(=O)c3ccc(O)c(OC)c3)cc(COC(=O)c3ccc(O)c(OC)c3)c2)ccc1O [DLT95, [3,5-bis[(4-hydroxy-3-methoxy-benzoyl)oxymethyl]phenyl]methyl 4-hydroxy-3-methoxy-benzoate]",–,–,9.1,–
"O=C(OCc1cc(COC(=O)c2ccc(O)c(F)c2)cc(COC(=O)c2ccc(O)c(F)c2)c1)c1ccc(O)c(F)c1 [DLT95-F, [3,5-bis[(4-hydroxy-3-fluoro-benzoyl)oxymethyl]phenyl]methyl 4-hydroxy-3-fluoro-benzoate]",–,65,3.2,≥ 50
